The target of the test is Escherichia coli DNA gyrase A/B tetramer (Escherichia coli, UniProt P0AES4+P0AES6). As to the kind of experiment: DNA gyrase supercoiling activity fluorescence polarisation assay. The class given is biochemical. The essentials:
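Gyrase supercoiling reactions quenched with 40 nM 5′-BODIPY-FL oligodeoxynucleotide triplex probe in pH 3.5 NaCl/sodium acetate buffer; fluorescence anisotropy read after 60 min (485/535 nm).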

Where two headings read alike, the source gives them in different places.

Sequence of Escherichia coli DNA gyrase A/B tetramer (P0AES4 whole entry, one chain of several): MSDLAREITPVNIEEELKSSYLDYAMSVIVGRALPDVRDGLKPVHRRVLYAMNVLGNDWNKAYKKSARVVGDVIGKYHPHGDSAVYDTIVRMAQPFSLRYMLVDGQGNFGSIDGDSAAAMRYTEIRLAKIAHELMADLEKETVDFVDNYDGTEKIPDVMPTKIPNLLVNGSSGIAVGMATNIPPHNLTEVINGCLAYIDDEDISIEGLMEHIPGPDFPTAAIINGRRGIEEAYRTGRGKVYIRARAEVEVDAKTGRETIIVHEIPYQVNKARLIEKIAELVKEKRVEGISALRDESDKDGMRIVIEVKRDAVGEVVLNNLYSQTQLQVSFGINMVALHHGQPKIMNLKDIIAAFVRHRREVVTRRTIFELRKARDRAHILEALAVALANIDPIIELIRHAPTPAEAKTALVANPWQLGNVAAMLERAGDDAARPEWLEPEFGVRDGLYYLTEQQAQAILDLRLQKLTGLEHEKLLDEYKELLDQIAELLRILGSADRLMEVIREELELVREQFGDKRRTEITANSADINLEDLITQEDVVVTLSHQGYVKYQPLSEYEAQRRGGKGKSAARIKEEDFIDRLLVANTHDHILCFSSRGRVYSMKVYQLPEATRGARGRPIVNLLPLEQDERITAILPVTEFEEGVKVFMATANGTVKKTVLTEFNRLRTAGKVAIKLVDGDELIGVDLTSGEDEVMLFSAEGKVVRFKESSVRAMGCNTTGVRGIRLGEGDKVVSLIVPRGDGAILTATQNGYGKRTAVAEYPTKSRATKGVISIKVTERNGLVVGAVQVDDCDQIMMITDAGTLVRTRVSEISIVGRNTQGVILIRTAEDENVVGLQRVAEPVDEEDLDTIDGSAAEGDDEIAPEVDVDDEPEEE

As usually defined, the IC50 is the point on the concentration scale where inhibition reaches its midpoint. The molecule `C[C@@H]1CN2c3cnc(-c4cnn(C)c4)cc3CC3(C(=O)NC(=O)NC3=O)[C@H]2[C@H](C)O1` (relative stereo) [Example 66, (6aS,7S,9R)-rel-7,9-dimethyl-3-(1-methyl-1H-pyrazol-4-yl)-6a,7,9,10-tetrahydro-2′H,5H-spiro[1,4-oxazino[4,3-a][1,7]naphthyridine-6,5′-pyrimidine]-2′,4′,6′(1′H,3′H)-trione] displayed an IC50 above 83 µM.

Regarding `C[C@@H]1CN2c3ccc(-c4cc5ccccc5o4)nc3CC3(C(=O)NC(=O)NC3=O)[C@H]2[C@H](C)O1` (relative stereo) [Example 68, (2R,4S,4aS)-rel-8-(1-Benzofuran-2-yl)-2,4-dimethyl-1,2,4,4a-tetrahydro-2′H,6H-spiro[1,4-oxazino[4,3-a][1,5]naphthyridine-5,5′-pyrimidine]-2′,4′,6′(1′H,3′H)-trione], the IC50 was 8 µM.

For `C[C@@H]1CN2c3ccc(-c4ccnn4C)nc3CC3(C(=O)NC(=O)NC3=O)[C@H]2[C@H](C)O1` (relative stereo) [Example 70, (2R,4S,4aS)-rel-2,4-Dimethyl-8-(1-methyl-1H-pyrazol-5-yl)-1,2,4,4a-tetrahydro-2′H,6H-spiro[1,4-oxazino[4,3-a][1,5]naphthyridine-5,5′-pyrimidine]-2′,4′,6′(1′H,3′H)-trione], the IC50 was 3 µM.

`COc1ccncc1-c1ccc2c(n1)CC1(C(=O)NC(=O)NC1=O)[C@H]1[C@H](C)O[C@H](C)CN21` (relative stereo) [Example 71, (2R,4S,4aS)-rel-8-(4-Methoxypyridin-3-yl)-2,4-dimethyl-1,2,4,4a-tetrahydro-2′H,6H-spiro[1,4-oxazino[4,3-a][1,5]naphthyridine-5,5′-pyrimidine]-2′,4′,6′(1′H,3′H)-trione] yielded an IC50 of 16 µM.

The molecule `C[C@@H]1CN2c3ccc(-c4cncnc4)nc3CC3(C(=O)NC(=O)NC3=O)[C@H]2[C@H](C)O1` (relative stereo) [Example 73, (2R,4S,4aS)-rel-2,4-Dimethyl-8-(pyrimidin-5-yl)-1,2,4,4a-tetrahydro-2′H,6H-spiro[1,4-oxazino[4,3-a][1,5]naphthyridine-5,5′-pyrimidine]-2′,4′,6′(1′H,3′H)-trione] had an IC50 of 3 µM.

The molecule `C[C@@H]1CN2c3ccc(-c4cccnc4)nc3CC3(C(=O)NC(=O)NC3=O)[C@H]2[C@H](C)O1` (relative stereo) [Example 74, (2R,4S,4aS)-rel-2,4-Dimethyl-8-(pyridin-3-yl)-1,2,4,4a-tetrahydro-2′H,6H-spiro[1,4-oxazino[4,3-a][1,5]naphthyridine-5,5′-pyrimidine]-2′,4′,6′(1′H,3′H)-trione] registered an IC50 of 4 µM.

In the case of `C[C@@H]1CN2c3ccc(-c4cccc5cccnc45)nc3CC3(C(=O)NC(=O)NC3=O)[C@H]2[C@H](C)O1` (relative stereo) [Example 75, (2R,4S,4aS)-rel-2,4-Dimethyl-8-(quinolin-8-yl)-1,2,4,4a-tetrahydro-2′H,6H-spiro[1,4-oxazino[4,3-a][1,5]naphthyridine-5,5′-pyrimidine]-2′,4′,6′(1′H,3′H)-trione], it took 8 µM to reach half-maximal inhibition (IC50).

For the molecule `C[C@@H]1CN2c3ccc(-c4ccoc4)nc3CC3(C(=O)NC(=O)NC3=O)[C@H]2[C@H](C)O1` (relative stereo) [Example 76, (2R,4S,4aS)-rel-8-(Furan-3-yl)-2,4-dimethyl-1,2,4,4a-tetrahydro-2′H,6H-spiro[1,4-oxazino[4,3-a][1,5]naphthyridine-5,5′-pyrimidine]-2′,4′,6′(1′H,3′H)-trione], 21 µM corresponded to half-maximal inhibition (IC50).

As to `Cc1noc(C)c1-c1ccc2c(n1)CC1(C(=O)NC(=O)NC1=O)[C@H]1[C@H](C)O[C@H](C)CN21` (relative stereo) [Example 77, (2R,4S,4aS)-rel-8-(3,5-Dimethylisoxazol-4-yl)-2,4-dimethyl-1,2,4,4a-tetrahydro-2′H,6H-spiro[1,4-oxazino[4,3-a][1,5]naphthyridine-5,5′-pyrimidine]-2′,4′,6′(1′H,3′H)-trione], the midpoint of inhibition, the IC50, lay at 8 µM.

In the case of `C[C@@H]1CN2c3ccc(-c4ccncc4)nc3CC3(C(=O)NC(=O)NC3=O)[C@H]2[C@H](C)O1` (relative stereo) [Example 78, (2R,4S,4aS)-rel-2,4-dimethyl-8-(pyridin-4-yl)-1,2,4,4a-tetrahydro-2′H,6H-spiro[1,4-oxazino[4,3-a][1,5]naphthyridine-5,5′-pyrimidine]-2′,4′,6′(1′H,3′H)-trione], the IC50 stood at 2 µM.

`C[C@@H]1CN2c3ccc(-c4cnn(C)c4)nc3CC3(C(=O)NC(=O)NC3=O)[C@H]2[C@H](C)O1` (relative stereo) [Example 79, (2R,4S,4aS)-rel-2,4-Dimethyl-8-(1-methyl-1H-pyrazol-4-yl)-1,2,4,4a-tetrahydro-2′H,6H-spiro[1,4-oxazino[4,3-a][1,5]naphthyridine-5,5′-pyrimidine]-2′,4′,6′(1′H,3′H)-trione] gave an IC50 of 17 µM.

For the molecule `C[C@@H]1CN2c3ccc(-c4cnccn4)nc3CC3(C(=O)NC(=O)NC3=O)[C@H]2[C@H](C)O1` (relative stereo) [Example 80, (2R,4S,4aS)-rel-2,4-Dimethyl-8-(pyrazin-2-yl)-1,2,4,4a-tetrahydro-2′H,6H-spiro[1,4-oxazino[4,3-a][1,5]naphthyridine-5,5′-pyrimidine]-2′,4′,6′(1′H,3′H)-trione], the IC50 was above 5 µM.

In turn, `C[C@@H]1CN2c3ncc(-c4ccc(F)cc4)cc3CC3(C(=O)NC(=O)NC3=O)[C@H]2[C@H](C)O1` (relative stereo) [Example 81, (6aS,7S,9R)-rel-3-(4-Fluorophenyl)-7,9-dimethyl-6a,7,9,10-tetrahydro-2′H,5H-spiro[1,4-oxazino[4,3-a][1,8]naphthyridine-6,5′-pyrimidine]-2′,4′,6′(1′H,3′H)-trione] returned an IC50 of 8 µM.

As for `Cc1ccccc1-c1cnc2c(c1)CC1(C(=O)NC(=O)NC1=O)[C@H]1[C@H](C)O[C@H](C)CN21` (relative stereo) [Example 82, (6aS,7S,9R)-rel-7,9-Dimethyl-3-(2-methylphenyl)-6a,7,9,10-tetrahydro-2′H,5H-spiro[1,4-oxazino[4,3-a][1,8]naphthyridine-6,5′-pyrimidine]-2′,4′,6′(1′H,3′H)-trione], the IC50 is above 83 µM.

As for `COc1ccccc1-c1cnc2c(c1)CC1(C(=O)NC(=O)NC1=O)[C@H]1[C@H](C)O[C@H](C)CN21` (relative stereo) [Example 83, (6aS,7S,9R)-rel-3-(2-Methoxyphenyl)-7,9-dimethyl-6a,7,9,10-tetrahydro-2′H,5H-spiro[1,4-oxazino[4,3-a][1,8]naphthyridine-6,5′-pyrimidine]-2′,4′,6′(1′H,3′H)-trione], the IC50 is above 83 µM.

For the molecule `C[C@@H]1CN2c3ncc(-c4ccccc4)cc3CC3(C(=O)NC(=O)NC3=O)[C@H]2[C@H](C)O1` (relative stereo) [Example 84, (6aS,7S,9R)-rel-7,9-Dimethyl-3-phenyl-6a,7,9,10-tetrahydro-2′H,5H-spiro[1,4-oxazino[4,3-a][1,8]naphthyridine-6,5′-pyrimidine]-2′,4′,6′(1′H,3′H)-trione], half-maximal inhibition (IC50) was put at 7 µM.

As for `C[C@@H]1CN2c3ccc(-c4nccs4)nc3CC3(C(=O)NC(=O)NC3=O)[C@H]2[C@H](C)O1` (relative stereo) [Example 85, (2R,4S,4aS)-rel-2,4-Dimethyl-8-(1,3-thiazol-2-yl)-1,2,4,4a-tetrahydro-2′H,6H-spiro[1,4-oxazino[4,3-a][1,5]naphthyridine-5,5′-pyrimidine]-2′,4′,6′(1′H,3′H)-trione], the IC50 came to 8 µM.

Regarding `C[C@@H]1CN2c3ncc(-c4nc5ccccc5s4)cc3CC3(C(=O)NC(=O)NC3=O)[C@H]2[C@H](C)O1` (relative stereo) [Example 87, (6aS,7S,9R)-rel-3-(1,3-Benzothiazol-2-yl)-7,9-dimethyl-6a,7,9,10-tetrahydro-2′H,5H-spiro[1,4-oxazino[4,3-a][1,8]naphthyridine-6,5′-pyrimidine]-2′,4′,6′(1′H,3′H)-trione], the IC50 came out at 4 µM.

`C[C@@H]1CN2c3ccc(-c4nc5ccccc5s4)nc3CC3(C(=O)NC(=O)NC3=O)[C@H]2[C@H](C)O1` (relative stereo) [Example 88, (2R,4S,4aS)-rel-8-(1,3-Benzothiazol-2-yl)-2,4-dimethyl-1,2,4,4a-tetrahydro-2′H,6H-spiro[1,4-oxazino[4,3-a][1,5]naphthyridine-5,5′-pyrimidine]-2′,4′,6′(1′H,3′H)-trione] showed an IC50 of 2 µM.

`C[C@@H]1CN2c3cnc(-c4nc5ccccc5s4)cc3CC3(C(=O)NC(=O)NC3=O)[C@H]2[C@H](C)O1` (relative stereo) [Example 89, (6aS,7S,9R)-rel-3-(1,3-benzothiazol-2-yl)-7,9-dimethyl-6a,7,9,10-tetrahydro-2′H,5H-spiro[1,4-oxazino[4,3-a][1,7]naphthyridine-6,5′-pyrimidine]-2′,4′,6′(1′H,3′H)-trione] yielded an IC50 of 11 µM.

In turn, `C[C@@H]1CN2c3ncc(-c4cncn4C)cc3CC3(C(=O)NC(=O)NC3=O)[C@H]2[C@H](C)O1` (relative stereo) [Example 90, (6aS,7S,9R)-rel-7,9-Dimethyl-3-(1-methyl-1H-imidazol-5-yl)-6a,7,9,10-tetrahydro-2′H,5H-spiro[1,4-oxazino[4,3-a][1,8]naphthyridine-6,5′-pyrimidine]-2′,4′,6′(1′H,3′H)-trione] yielded an IC50 of 21 µM.

`COc1nccnc1-c1cnc2c(c1)CC1(C(=O)NC(=O)NC1=O)[C@H]1[C@H](C)O[C@H](C)CN21` (relative stereo) [Example 92, (6aS,7S,9R)-rel-3-(3-Methoxypyrazin-2-yl)-7,9-dimethyl-6a,7,9,10-tetrahydro-2′H,5H-spiro[1,4-oxazino[4,3-a][1,8]naphthyridine-6,5′-pyrimidine]-2′,4′,6′(1′H,3′H)-trione] came in with an IC50 of 20 µM.

As for `COc1nccnc1-c1cc2c(cn1)N1C[C@@H](C)O[C@@H](C)[C@@H]1C1(C2)C(=O)NC(=O)NC1=O` (relative stereo) [Example 93, (6aS,7S,9R)-rel-3-(3-Methoxypyrazin-2-yl)-7,9-dimethyl-6a,7,9,10-tetrahydro-2′H,5H-spiro[1,4-oxazino[4,3-a][1,7]naphthyridine-6,5′-pyrimidine]-2′,4′,6′(1′H, 3H)-trione], where the note is “E. coli DNA gyrase supercoiling, asterisk: no IC50 obtained at or below the indicated concentration, read-out: IC50”, the IC50 is above 83 µM.

The values are drawn from patent publication US20110178064A1, “SPIRO CONDENSED […] DERIVATIVES FOR USE AS ANTIBACTERIAL” (A[…]&D, priority 2007, published 2011).
